Experimental data taken from article PMC6381099, “Hydroxyoleoside-type seco-iridoids from Symplocos cochinchinensis and their insulin mimetic activity” (Scientific Reports, 2019).

Biological target: T1, PTP1B (protein tyrosine phosphatase 1B) (Homo sapiens, UniProt P18031)
T1 construct: gene PTPN1
T1 sequence (P18031 1-435): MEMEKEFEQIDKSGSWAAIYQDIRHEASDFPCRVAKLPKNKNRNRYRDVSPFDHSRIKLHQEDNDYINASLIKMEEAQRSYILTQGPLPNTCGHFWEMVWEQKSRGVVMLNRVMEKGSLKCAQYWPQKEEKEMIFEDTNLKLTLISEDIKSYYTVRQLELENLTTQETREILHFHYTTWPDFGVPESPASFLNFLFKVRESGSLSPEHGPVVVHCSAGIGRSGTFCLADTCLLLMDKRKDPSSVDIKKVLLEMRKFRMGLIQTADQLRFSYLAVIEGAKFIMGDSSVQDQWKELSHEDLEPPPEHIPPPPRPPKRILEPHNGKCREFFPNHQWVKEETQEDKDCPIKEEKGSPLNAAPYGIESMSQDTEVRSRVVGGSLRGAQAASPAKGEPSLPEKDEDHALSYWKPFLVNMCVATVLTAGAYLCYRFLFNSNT
Assay: p-NPP hydrolysis assay with recombinant human PTP1B; Lineweaver-Burk kinetics
Assay type: biochemical

Q: With `O=C(O)C[C@@H]1C(C(=O)O)=CO[C@@H](O[C@@H]2O[C@H](CO)[C@@H](O)[C@H](O)[C@H]2O)C1=CCOC(=O)/C=C/c1ccc(O)cc1` [compound 3, Symplocochinside C] as the compound, how does the IC50 read?
A: 19.5 ± 0.76 µM
